From patent US20130324542A1, “[1,2,4]TRIAZOLO[4,3-B][1,2,4]TRIAZINE COMPOUNDS, PREPARATION METHOD AND USE THEREOF” (SHANGHAI INSTITUTE OF MATERIA MEDICA, CHINESE ACADEMY OF …, priority 2010, published 2013)

Assays:
[1] = tested on: Human Glioblastoma Cells U-87MG Xenograft; assay: Tumor growth in human glioblastoma U-87MG xenograft model of nude mice; format: in vivo; conditions: for tumor growth inhibition (TGI): 17 days, end of treatment; for inhibitory action on the growth of transplanted tumor: at each administration dose (50, 100 mg/kg i.p. daily)
Method: The treatment group was administered intraperitoneally and daily with compound I-19 at various concentrations (50 mg/kg, 100 mg/kg) respectively.
The length (A) and width (B) of the tumor in mice were measured twice a week and tumor volume was calculated thereby as: V=A×B^2/2. Provided that Vt was the tumor volume measured at a given time point and V0 was the tumor volume measured before the mice were grouped and administered, tumor growth inhibition (TGI) was calculated as: […]

[2] = Body weight and death of nude mice bearing U-87MG (toxicity and side effect); conditions: for weight loss of nude mice: 50 and 100 mg/kg intraperitoneally once daily, 17 days
Method: LI-87MG Cells were inoculated subcutaneously in right axillary fossa of nude mice with 5×10^6 cells per mouse. After the xenografted tumor was formed, it was passed three generations in nude mice and then used. Tumor tissue in productive phase was cut into nubs of about 1.5 mm^3 and inoculated subcutaneously in right axillary fossa of the nude mice in a sterile condition. The diameters of the xenografted tumors were measured by a vernier caliper. […] The administration was performed once daily and lasted for 17 days. At the same time, the negative group was administered with equivalent physiological saline.
wherein, CVt was tumor volume in control group measured at a given time point, CV0 was tumor volume in control group measured before grouping and treatment, TVt was tumor volume in treatment group measured at a given time point, and TV0 was tumor volume in treatment group measured before grouping and treatment. The significant differences between the treated and control groups were evaluated using t-test. At the same time, body weight of nude mice in each group was measured twice a week to preliminarily evaluate the toxicity and side effect of compound.

NIH3T3/TPR-Met cells = assay: Cell proliferation mediated by c-Met, SRB assay, NIH3T3/TPR-Met cells; format: cell-based; conditions: 72 h; for inhibition at 1 µM / inhibition at 10 µM / inhibition at 50 µM: Mus musculus, NIH3T3, read-out: inhibition rate (%) on proliferation of NIH3T3/TPR-Met cells
Method: Three concentrations were set, and for each concentration, the test was carried out in triplicate wells. 72 h later, the culture medium was removed. The residue was fixed by precooled 10% TCA at 4° C. for 1 h, washed by distilled water for 5 times and dried at room temperature. […] The excess dye was removed by washed with 1% glacial acetic acid for 5 times and dried in air. At last, 150 μL of Tris-HCL solution (10 mM Tris, pH 10.0) was added to each well.

c-Met tyrosine kinase = c-Met tyrosine kinase (Homo sapiens, UniProt P08581); assay: c-Met kinase activity on molecular level (ELISA, Poly(Glu,Tyr)4:1 substrate); format: biochemical; conditions: ATP 5 μM, 37° C., 1 h
Method: Poly(Glu, Tyr)4:1 as an enzyme substrate was diluted by potassium ion-free PBS (10 mM, sodium phosphate buffer, 150 mM NaCl, pH7.2-7.4) into a solution of 20 μg/ml. […] After the liquid in wells was removed, the plate was washed three time by T-PBS (PBS solution containing 0.1% Tween-20) at 200 μl/well, 5 min for each time. The ELISA plate was then dried in an oven at 37° C. for 1-2 h.
Each well was added with 50 μL of ATP solution diluted by reaction buffer (50 mM HEPES pH 7.4, 50 mM MgCl2, 0.5 mM MnCl2, 0.2 mM Na3VO4, 1 mM DTT) at a final concentration of 5 μM. Compound diluted by 1% DMSO into a suitable concentration was added at 10 μl/well and then c-Met tyrosine kinase protein diluted by 40 μl of reaction buffer was added. The plate was placed on a shaking table (100 rpm) at 37° C. and incubated for 1 h, and then washed three times by T-PBS. For each assay, triplicate wells without enzyme were used as blank control and wells having the corresponding DMSO concentration without compound were used as negative control. Primary antibody PY99 (p-Tyr (PY99), Cell Signaling Technology, 1:1000 diluted in 5 mg/mL BSA T-PBS) was added at 100 μl/well. The plate was then placed on a shaking table at 37° C. and incubated for 0.5 h, and washed by T-PBS. Secondary antibody horseradish peroxidase-conjugated goat anti-mouse IgG (1:2000 diluted in 5 mg/mL BSA T-PBS) was added at 100 μl/well. The plate was then placed on a shaking table at 37° C. for 0.5 h and washed three times by T-PBS. 2 mg/mL of OPD developer (diluted by a 0.1M citric acid-sodium citrate buffer (pH=5.4) containing 0.03% of H2O2) was added at 100 μl/well, and the plate was kept in dark at 25° C. for 1-10 min. OPD was ultrasonically dissolved and the developer solution was prepared just before use. 2 M of H2SO4 was added at 50 μl/well to stop the reaction. The plate was read using a wavelength regulated multi-well spectrophotometer (SPECTRA MAX 190) at 490 nm.
The inhibition rate was calculated according to the following equation:
Inhibition rate (%)=(1−(ODcompound−ODblank)/(ODnegative−ODblank))×100%
IC50 value was calculated through a four-parameter fit according to the inhibition curve.

NIH3T3 background cells = assay: Cell proliferation, SRB assay, NIH3T3 background cells as control; format: cell-based; conditions: 72 h; for inhibition at 1 µM / inhibition at 10 µM / inhibition at 50 µM: Mus musculus, NIH3T3, read-out: inhibition rate (%) on proliferation of NIH3T3 background cells
Method: NIH3T3/TPR-Met cells in the logarithmic growth phase and NIH3T3 background cells were seeded in a 96-well microcuture plate at 90111_, per well and cultivated overnight, followed by addition of 104 of the compound at different concentrations. Three concentrations were set, and for each concentration, the test was carried out in triplicate wells. 72 h later, the culture medium was removed. The residue was fixed by precooled 10% TCA at 4° C. for 1 h, washed by distilled water for 5 times and dried at room temperature. After that, 4 mg/mL of sulforodamine B (SRB) in 1% glacial acetic acid was added to each well (1004 per well) for staining at room temperature for 15 min. The excess dye was removed by washed with 1% glacial acetic acid for 5 times and dried in air. At last, 150 μL of Tris-HCL solution (10 mM Tris, pH 10.0) was added to each well. OD values were measured on a multi-well spectrophotometer at […].

TPR-Met = molecular target: T1, TPR-Met (Homo sapiens, UniProt P08581); assay: TPR-Met phosphorylation in NIH3T3/TPR-Met cells (Western blot); format: cell-based; conditions: 0.01 μM, 6 h
T1 construct: therein no interference of Met's extracellular fragment, and the intracellular TPR-Met fused protein was expressed in cytoplasm; expressed in transfected cells; host or cells: NIH3T3/TPR-Met cells (mouse fibroblasts expressing TPR-Met); the other entry of the earlier key: TPR (P12270, Nucleoprotein TPR)
Method: NIH3T3/TPR-Met cells (in such cells, therein no interference of Met's extracellular fragment, and the intracellular TPR-Met fused protein was expressed in cytoplasm and could be activated continuously independent of HGF) were inoculated on a 12-well plate. After fusion degree reached 80%, the cells were treated with indicated concentration of corresponding compounds and SU11274 for 6 h at 37° C., collected and washed once by cold PBS (containing 1 mM sodium vanadate), and lysed with 1×SDS gel loading buffer (50 mM Tris-HCl (pH 6.8), 100 mM DTT, 2% SDS, 10% glycerin, 1 mM sodium vanadate, and 0.1% bromophenol blue). The lysate was heated in a boiling-water bath for 10 min and then centrifuged (12000 rpm) at 4° C. for 10 min.
The supernatant was subjected to SDS-PAGE electrophoresis and the protein was transferred to nitrocellulose membranes (Amersham Life Sciences, Arlington Heights, Ill., USA) by a Semi-Dry Electroblotting System. […] The membrane was washed three times by TBS/T containing 1 mM of sodium vanadate, 15 min for each time, and then placed in a solution of secondary antibody (1:2000) at room temperature for 1-2 hours. After the membranes were washed 3 times as above, they were dyed with an ECL reagent, exposed and developed.
The nitrocellulose membranes were placed in Reblot™ solution of Chemicon co. […]

[3] = 50 mg/kg intraperitoneally once daily
[4] = 100 mg/kg intraperitoneally once daily

Sequence of c-Met tyrosine kinase (P08581 25-1390): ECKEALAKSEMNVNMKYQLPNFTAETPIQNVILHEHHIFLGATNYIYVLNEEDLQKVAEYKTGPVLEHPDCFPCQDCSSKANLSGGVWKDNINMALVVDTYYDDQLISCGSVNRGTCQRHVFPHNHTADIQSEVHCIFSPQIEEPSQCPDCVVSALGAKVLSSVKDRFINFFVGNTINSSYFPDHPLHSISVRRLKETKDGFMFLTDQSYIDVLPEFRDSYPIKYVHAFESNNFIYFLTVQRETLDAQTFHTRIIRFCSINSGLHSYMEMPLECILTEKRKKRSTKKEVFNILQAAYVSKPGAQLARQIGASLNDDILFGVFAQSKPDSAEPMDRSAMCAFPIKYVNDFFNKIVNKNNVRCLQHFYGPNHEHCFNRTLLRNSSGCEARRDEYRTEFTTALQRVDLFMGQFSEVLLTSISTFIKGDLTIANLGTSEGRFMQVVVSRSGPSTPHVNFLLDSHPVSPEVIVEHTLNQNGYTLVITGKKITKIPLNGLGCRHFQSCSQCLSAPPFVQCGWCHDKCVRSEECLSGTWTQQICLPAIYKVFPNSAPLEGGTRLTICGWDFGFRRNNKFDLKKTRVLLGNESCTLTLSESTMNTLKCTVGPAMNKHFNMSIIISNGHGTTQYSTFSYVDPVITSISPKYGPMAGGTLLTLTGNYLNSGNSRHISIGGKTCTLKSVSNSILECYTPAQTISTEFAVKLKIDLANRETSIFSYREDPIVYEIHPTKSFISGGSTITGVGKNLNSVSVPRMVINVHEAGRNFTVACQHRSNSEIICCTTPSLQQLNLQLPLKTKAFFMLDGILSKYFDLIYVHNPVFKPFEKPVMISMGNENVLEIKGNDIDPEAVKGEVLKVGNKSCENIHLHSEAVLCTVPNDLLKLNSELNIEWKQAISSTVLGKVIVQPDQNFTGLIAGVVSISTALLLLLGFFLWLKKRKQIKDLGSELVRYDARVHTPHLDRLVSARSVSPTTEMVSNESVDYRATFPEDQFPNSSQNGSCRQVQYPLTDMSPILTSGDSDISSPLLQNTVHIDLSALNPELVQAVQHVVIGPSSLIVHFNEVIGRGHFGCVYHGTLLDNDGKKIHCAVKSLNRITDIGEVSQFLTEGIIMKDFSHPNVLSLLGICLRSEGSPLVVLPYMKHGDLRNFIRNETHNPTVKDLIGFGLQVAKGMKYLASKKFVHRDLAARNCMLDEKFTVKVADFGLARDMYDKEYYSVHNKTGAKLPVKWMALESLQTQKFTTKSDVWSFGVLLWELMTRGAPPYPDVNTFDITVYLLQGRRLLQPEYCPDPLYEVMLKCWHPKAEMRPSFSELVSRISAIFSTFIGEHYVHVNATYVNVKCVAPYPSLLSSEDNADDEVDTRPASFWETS
T1 sequence (P08581 with tags, fused parts or gaps): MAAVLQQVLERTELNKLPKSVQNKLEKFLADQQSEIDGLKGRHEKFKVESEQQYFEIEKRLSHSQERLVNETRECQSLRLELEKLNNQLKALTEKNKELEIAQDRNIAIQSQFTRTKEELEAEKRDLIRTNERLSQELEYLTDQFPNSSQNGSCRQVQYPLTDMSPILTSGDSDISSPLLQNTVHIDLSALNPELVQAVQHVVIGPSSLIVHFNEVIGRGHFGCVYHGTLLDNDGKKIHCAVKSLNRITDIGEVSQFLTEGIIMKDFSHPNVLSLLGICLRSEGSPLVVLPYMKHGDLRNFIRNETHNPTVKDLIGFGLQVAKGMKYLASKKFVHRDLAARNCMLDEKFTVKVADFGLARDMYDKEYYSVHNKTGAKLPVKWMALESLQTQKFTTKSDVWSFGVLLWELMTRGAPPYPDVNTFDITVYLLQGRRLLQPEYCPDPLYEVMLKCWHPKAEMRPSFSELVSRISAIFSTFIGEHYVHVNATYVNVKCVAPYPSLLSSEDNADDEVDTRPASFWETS

Structure (SMILES)	IC50 (c-Met tyrosine kinase) [nM]	inhibition at 1 µM (NIH3T3/TPR-Met cells; 1 μM) [%]	inhibition at 10 µM (NIH3T3/TPR-Met cells; 10 μM) [%]	inhibition at 50 µM (NIH3T3/TPR-Met cells; 50 μM) [%]	inhibition at 1 µM (NIH3T3 background cells; 1 μM) [%]	inhibition at 10 µM (NIH3T3 background cells; 10 μM) [%]	inhibition at 50 µM (NIH3T3 background cells; 50 μM) [%]	further results
Cn1cc(-c2cnc3nnc(C(F)(F)c4ccc5ncccc5c4)n3n2)cn1 [Compound I-19, 3-[(6-quinolyl)difluoromethyl]-6-[(1-methyl)-4-pyrazolyl]-[1,2,4]triazolo[4,3-b][1,2,4]triazine]								tumor growth inhibition (TGI) [1, 3]: 83.9%; tumor growth inhibition (TGI) [1, 4]: 95.3%; inhibitory action on the growth of transplanted tumor [1]: significantly inhibitory action; death of mice [2, 4]: one mouse died on the 9th day; weight loss of nude mice [2]: No mouse in I-19 or JNJ-38877605 treated group show obvious weight loss
FC(F)(c1ccc2ncccc2c1)c1nnc2ncc(-c3ccc(OCc4ccccc4)cc3)nn12 [Compound I-24, 3-[(6-quinolyl)difluoromethyl]-6-(4-benzyloxy-phenyl)-[1,2,4]triazolo[4,3-b][1,2,4]triazine]	2.9	83.5	87.7	87.2	16.9	23.6	32.8	
COc1ccc2c(OCc3nnc4ncc(-c5ccc([N+](=O)[O-])cc5)nn34)ccnc2c1 [II-6, 3-[(7-methoxy-4-quinolyl)oxymethyl]-6-(4-nitrophenyl)-[1,2,4]triazolo[4,3-b][1,2,4]triazine]	0.56	78.6	82.4	82.3	46.2	53.3	50.6	
FC(F)(c1ccc2ncccc2c1)c1nnc2ncc(-c3cnn(C4CCNCC4)c3)nn12 [Compound I-21, 3-[(6-quinolyl)difluoromethyl]-6-[1-(4-piperidyl)-4-pyrazolyl]-[1,2,4]triazolo[4,3-b][1,2,4] triazine]	81.6	6	76.8	85.1	12	25.5	28.4	
COC(=O)c1ccc(-c2cnc3nnc(COc4ccnc5cc(OC)ccc45)n3n2)cc1 [II-5, 3-[(7-methoxy-4-quinolyl)oxymethyl]-6-(4-methoxyformylphenyl)-[1,2,4]triazolo[4,3-b][1,2, 4]triazine]	0.78		79.2			6.2		
COc1ccc2c(OCc3nnc4ncc(-c5ccc(Cl)cc5)nn34)ccnc2c1 [II-2, 3-[(7-methoxy-4-quinolyl)oxymethyl]-6-(4-chlorophenyl)-[1,2,4]triazolo[4,3-b][1,2,4]triazine]	0.37		79			21		
COc1ccc2c(OCc3nnc4ncc(-c5ccc(OCc6ccccc6)cc5)nn34)ccnc2c1 [II-8, 3-[(7-methoxy-4-quinolyl)oxymethyl]-6-(4-benzyloxyphenyl)-[1,2,4]triazolo[4,3-b][1,2,4] triazine]	32.4		81.2			7.5		

Further lines, with some results ahead:

IC50 (c-Met tyrosine kinase) [nM]	Structure (SMILES)	inhibition at 1 µM (NIH3T3/TPR-Met cells; 1 μM) [%]	inhibition at 10 µM (NIH3T3/TPR-Met cells; 10 μM) [%]	inhibition at 50 µM (NIH3T3/TPR-Met cells; 50 μM) [%]	inhibition at 1 µM (NIH3T3 background cells; 1 μM) [%]	inhibition at 10 µM (NIH3T3 background cells; 10 μM) [%]	inhibition at 50 µM (NIH3T3 background cells; 50 μM) [%]	further results
0.3	COc1cc2nccc(OCc3nnc4ncc(-c5ccc(OCc6ccccc6)cc5)nn34)c2cc1OC [II-19, 3-[(6,7-dimethoxy-4-quinolyl)oxymethyl]-6-(4-benzyloxyphenyl)-[1,2,4]triazolo[4,3-b][1,2,4] triazine]	6.55		97	24.9	31.1	83.4	
7.9	Cc1[nH]c(/C=C2\C(=O)Nc3ccc(S(=O)(=O)N(C)c4cccc(Cl)c4)cc32)c(C)c1C(=O)N1CCN(C)CC1 [SU11274, reference compound]	8.5	80.1	88.7	19.9	44.2	70.6	
0.88	COc1ccc(-c2cnc3nnc(COc4ccnc5ccccc45)n3n2)cc1 [II-23, 3-(4-quinolyloxymethyl)-6-(4-methoxyphenyl)-[1,2,4]triazolo[4,3-b][1,2,4]triazine]	29	83.2	88.5	22.8	49.8	31.3	
0.95	Cn1cc(-c2ccc3nnc(C(F)(F)c4ccc5ncccc5c4)n3n2)cn1 [JNJ-38877605, reference compound]							inhibition rate (%) on proliferation of NIH3T3/TPR-Met cells (NIH3T3/TPR-Met cells; 1 μM): 70.8%; inhibition rate (%) on proliferation of NIH3T3/TPR-Met cells (NIH3T3/TPR-Met cells; 10 μM): 72.2%; inhibition rate (%) on proliferation of NIH3T3/TPR-Met cells (NIH3T3/TPR-Met cells; 50 μM): 77.3%; tumor growth inhibition (TGI) [1, 3]: 101.4%; tumor growth inhibition (TGI) [1, 4]: 106.9%; inhibitory action on the growth of transplanted tumor [1]: significantly inhibitory action; c-Met phosphorylation in NIH3T3/TPR-Met cells (TPR-Met): less potency; weight loss of nude mice [2]: No mouse in I-19 or JNJ-38877605 treated group show obvious weight loss; inhibition rate (%) on proliferation of NIH3T3 background cells (NIH3T3 background cells; 1 μM): 16.0%; inhibition rate (%) on proliferation of NIH3T3 background cells (NIH3T3 background cells; 10 μM): 15.1%; inhibition rate (%) on proliferation of NIH3T3 background cells (NIH3T3 background cells; 50 μM): 25.7%
2.9	COc1cc2nccc(OCc3nnc4ncc(-c5ccccc5)nn34)c2cc1OC [II-17, 3-[(6,7-dimethoxy-4-quinolyl)oxymethyl]-6-phenyl-[1,2,4]triazolo[4,3-b][1,2,4]triazine]		65.2			1.2		
